# Measurements from patent US20220040162A1, “COMPOSITIONS COMPRISING A CRAC INHIBITOR AND A CORTICOSTEROID AND METHODS OF USE THEREOF” (Rhizen Pharmaceuticals AG, priority 2018, published 2022).
# Tests used:
# [1] = test system: mononuclear cells isolated from peripheral blood; test: LPS-induced IL-1β, IL-6 and GM-CSF release in mononuclear cells isolated from healthy and asthmatic patients; type: cell-based, human; settings: single agent
# Procedure: Mononuclear cells were isolated from peripheral blood of healthy volunteers, and asthmatic patients. Briefly, PBMC were isolated from peripheral venous blood by standard laboratory procedures. Peripheral venous blood was mixed with dextran 500 at 3% (in 0.9% saline) in a proportion of 2:1. This mixture was incubated at room temperature for 30 min until sedimentation of erythrocytes. The upper phase was carefully collected and layered on Ficoll-Paque Histopaque 1077 density gradient in a proportion of 3:1. (PBMC) layer was isolated and quantified.
# For the single agent study, isolated mononuclear cells were incubated with Compound A, or vehicle for 30 minutes before incubation with or without LPS for 6 hours in standard cell culture conditions (37° C. and 5% CO2). For the combination experiments, the same procedure was followed except that cells were incubated with Compound A (1 μM) in combination with fluticasone (0.1 nM). Supernatants were collected to measure IL-1β, IL-6, and GM-CSF. Data was analysed using Graphpad Prism.
# U937 cells = test: H2O2 induced corticosteroid insensitivity in U937 cells (TNF-α induced IL-8, ELISA); type: cell-based; settings: H2O2 treated U937 macrophages; addition of 1 μM Compound A; FIG. 1B
# Procedure: U937 cells were maintained in RPMI-1640 with 15 mM glutamine. 6×10^6 cells were taken in a T-25 flask with 12 ml of fresh medium and treated with 1 μM of Compound A and incubated at 37° C. and 5% CO2 for 30 min.
# H2O2 was added at a final concentration of 200 μM to the above cells and incubated for 2 h.
# Cells were pelleted and resuspended in serum free media and seeded on to a 96-well plate at 0.15×10^6 cells per well in 100 μl.
# 50 μl of 3× dexamethasone at desired concentrations was added and incubated for 45 min
# 50 μl of 4× concentration of TNF-α was added such that the final concentration was 10 ng/ml, to induce IL-8 and incubated for 18 h.
# Supernatant was collected and IL-8 was estimated by ELISA.
# IL-8 strips were plated with fresh or thawed supernatants and incubated at room temperature for 2 h or overnight at 4° C.
# Contents were discarded and strips were washed with 200 μl of wash buffer per well for 15 s for a total of 5 times.
# Strips were blotted dry and 100 μl per well of 1× detection antibody was added and incubated at room temperature for 1 h.
# Strips were blotted dry and 100 μl per well of 1× Avidin-HRP antibody was added and incubated at room temperature for 30 min.
# Contents were discarded and the strips were washed with 200 μl per well of wash buffer for 15 s for a total of 5 times. […]
# Absorbance was read on a plate reader at A450 nm and A570 nm.
# [2] = asthmatic patients, LPS stimulus 6 hours
compound,measurement,setting,value
"Cc1ccccc1C(=O)Nc1ccc(-n2nc(C(F)(F)F)cc2C2CC2)nc1 [Compound A, N-{6-[5-cyclopropyl-3-(trifluoromethyl)-1H-pyrazol-1-yl]pyridin-3-yl}-2-methyl benzamide]","percentage maximum effect (% Emax), GM-CSF release",[1]; [2],80±16.4%
same,"percentage maximum effect (% Emax), IL1β release",[1]; [2],68.9±23.7%
same,"percentage maximum effect (% Emax), IL6 release",[1]; [2],52.5±30.3%
same,% Emax for IL1β compared with asthmatic cells,"[1]; healthy donors, LPS stimulus",higher % Emax
same,reduction in IC50 of dexamethasone for IL-8 release,U937 cells,3 fold
